Test results taken from patent publication US10792303B2, “Compositions and methods for inducing beige or brown fat tissue” (Logick Energetics, priority 2015, dated 2020).

System: KS-483 cells
Experiment: qPCR gene expression in KS-483 cells after compound stimulation
Assay type: cell-based
Settings: 3 days stimulation, Indo 5 uM; for BMP-4 gene expression (control = 1) / BMP-7 gene expression (control = 1) / CD36 gene expression (control = 1) / CEBP gene expression (control = 1) / CIDEA gene expression (control = 1) / DKK2 gene expression (control = 1) / FABP-4 gene expression (control = 1) / FGF21 gene expression (control = 1) / LPL gene expression (control = 1) / LRP5 gene expression (control = 1) / O3FAR1 gene expression (control = 1) / PLIN1 gene expression (control = 1) / PPAR-γ gene expression (control = 1) / PRDM16 gene expression (control = 1) / PpargC1α/PGC-1α gene expression (control = 1) / SCD1 gene expression (control = 1) / SLC2A4 gene expression (control = 1) / WNT5a gene expression (control = 1) / WNT6 gene expression (control = 1) / WNT10a gene expression (control = 1) / WNT11 gene expression (control = 1) / Adipoq gene expression (control = 1) / CFD gene expression (control = 1) / Noggin gene expression (control = 1) / UCP-1 gene expression (control = 1): Pentosan 5 ug/ml; for BMP-2 gene expression (control = 1): Pentosan 0.05 ug/ml
Method: The genes in KS-483 cells were assessed for up- or downregulation after stimulation with compound. Briefly, KS-483 cells were cultured under standard culturing conditions in α-MEM medium supplemented with glutamax, penicillin/streptomycin and 10% heat-inactivated Foetal Calf Serum (FCS).
For gene-expression analysis cells were seeded at 9210 cells/cm2 in 6-wells culture plates (Costar). At day 4, when cells were confluent, cells were stimulated with compounds in the presence of 5 μg/ml vitamin C. After 72 hours stimulation, cells were washed with PBS and subsequently RNA from the cells was isolated in 1 ml TRIzol (Invitrogen) following a standard TRIzol isolation protocol. RNA concentration and purity was assessed on a Nanodrop 1000 (Thermo Scientific). Single strand cDNA was synthesized from the isolated mRNA using reverse transcriptase (RT). Subsequently, SYBR green real-time PCR, also known as qPCR, was used to quantify differential gene expression of selected genes normalized to the expression of the housekeeping gene beta-2 microglobulin (b2m). […] The qPCR protocol applied was as follows:
15 minutes at 95° C. to activate Taq DNA polymerase, inactivate reverse transcriptase and denaturate the cDNA template.
40 cycles of 15 seconds denaturation at 95° C., 30 seconds annealing at 55° C. and 30 seconds of extension at 72° C.
At the melting point, the two strands of DNA will separate and the fluorescence rapidly decreases. Presence of multiple melting point, pointing at contaminated end-products was verified.
The threshold cycle or CT value (the cycle at which a statistically significant increase in normalized fluorescence intensity is first detected) were determined and relative fold change of genes of interest compared to b2m was determined.
The control has an expression of 1; values higher than 1 imply up-regulation of the gene; values lower than 1 imply down-regulation of genes.

Row | Molecule | BMP-4 gene expression (control = 1) (1 ng c-DNA) | BMP-7 gene expression (control = 1) (1 ng c-DNA) | CD36 gene expression (control = 1) (1 ng c-DNA) | CEBP gene expression (control = 1) (1 ng c-DNA) | CIDEA gene expression (control = 1) (1 ng c-DNA) | DKK2 gene expression (control = 1) (1 ng c-DNA) | FABP-4 gene expression (control = 1) (1 ng c-DNA) | FGF21 gene expression (control = 1) (1 ng c-DNA) | LPL gene expression (control = 1) (1 ng c-DNA) | LRP5 gene expression (control = 1) (1 ng c-DNA) | O3FAR1 gene expression (control = 1) (1 ng c-DNA) | PLIN1 gene expression (control = 1) (1 ng c-DNA) | PPAR-γ gene expression (control = 1) (1 ng c-DNA) | PRDM16 gene expression (control = 1) (1 ng c-DNA) | PpargC1α/PGC-1α gene expression (control = 1) (1 ng c-DNA) | SCD1 gene expression (control = 1) (1 ng c-DNA) | SLC2A4 gene expression (control = 1) (1 ng c-DNA) | WNT5a gene expression (control = 1) (1 ng c-DNA) | WNT6 gene expression (control = 1) (1 ng c-DNA) | WNT10a gene expression (control = 1) (1 ng c-DNA) | further results
1 | Pentosan polysulfate | 0.77 | 0.77 | 2.60 | 0.63 | 5.50 | 0.14 | 3.83 | 0.23 | 2.33 | 3.27 | 0.44 | 17.47 | 1.55 | 1.85 | 2.09 | 0.85 | 1.07 | 0.76 | 0.16 | 0.03 | WNT11 gene expression (control = 1) (1 ng c-DNA): 0.12; BMP-2 gene expression (control = 1) (10 ng c-DNA): 1.32; Adipoq gene expression (control = 1) (10 ng c-DNA): 32.00; CFD gene expression (control = 1) (10 ng c-DNA): 40.86; CIDEA gene expression (control = 1) (10 ng c-DNA): 9.19; Noggin gene expression (control = 1) (10 ng c-DNA): 3.56; O3FAR1 gene expression (control = 1) (10 ng c-DNA): 1.14; UCP-1 gene expression (control = 1) (10 ng c-DNA): 2.85
2 | COc1ccc2c(c1)c(CC(=O)O)c(C)n2C(=O)c1ccc(Cl)cc1 [Indo, Indomethacin] | 0.81 | 1.62 | 181.5 | 1.19 | 0.95 | 1.06 | 162.94 | 2.33 | 4.43 | 1.58 | 2.26 | 354.02 | 0.91 | 1.58 | 1.15 | 1.32 | 2.09 | 0.73 | 0.83 | 0.92 | WNT11 gene expression (control = 1) (1 ng c-DNA): 1.01; BMP-2 gene expression (control = 1) (10 ng c-DNA): 1.96; Adipoq gene expression (control = 1) (10 ng c-DNA): 251.30; CFD gene expression (control = 1) (10 ng c-DNA): 413.23; CIDEA gene expression (control = 1) (10 ng c-DNA): 1.86; Noggin gene expression (control = 1) (10 ng c-DNA): 2.25; O3FAR1 gene expression (control = 1) (10 ng c-DNA): 5.68; UCP-1 gene expression (control = 1) (10 ng c-DNA): 2.18
